For 4 compounds, Activity results are on record in ChEMBL document CHEMBL3046482, “Facile synthesis of furoquinoline and effects on radical-induced oxidation of DNA” (Med Chem Res, 2013).

The structures appear in SMILES notation. Calls of active or inactive are those of the source. The rule behind the calls is not given here.

What all share (assay type): functional
A short description of experiment [1]: Antioxidant activity assessed as decrease in Cu2+/GSH-induced oxidation of DNA measured TBARS production at 400 uM after 90 min by spectrophotometric analysis relative to control. Set-up: scale not given: the % may be the effect or the level left.
The nature of experiment [2]: Antioxidant activity assessed as decrease in hydroxyl radical-induced oxidation of DNA measured TBARS production at 400 uM after 30 min by spectrophotometric analysis relative to control. Set-up: scale not given: the % may be the effect or the level left.
Experiment [3] in a line: Antioxidant activity assessed as decrease in AAPH-induced oxidation of DNA measured TBARS production at 400 uM after 15 min by spectrophotometric analysis.
Experiment [4] is described as follows: Antioxidant activity assessed as decrease in AAPH-induced oxidation of DNA measured TBARS production at 100 to 400 uM after 15 min by spectrophotometric analysis.

On to `Cc1c2c(nc3ccccc13)OCC2`, for which the Activity is 96.6% in experiment [1] and 95.1% in experiment [2]. Moreover, the result in experiment [3] was inactive.
`Cc1c2c(nc3cc(O)ccc13)OCC2`: the Activity in experiment [1] came out at 93.5%; in experiment [2], 95.1%. Also, the result in experiment [4] was Active.
On to `Cc1c2c(nc3ccc(O)cc13)OCC2`, for which the Activity amounted to 92.9% in experiment [1] and 88.4% in experiment [2].
For `Cc1c2c(nc3c(O)cccc13)OCC2`, in that order: 92.2% and 90.8%.
